Test results from US20250332173A1, “COMPOUNDS AND METHODS FOR MODULATING NUCLEIC ACID SPLICING” (REMIX THERAPEUTICS INC., priority 2021, published 2025).
Like-named read-outs stand apart in the source and are kept apart here.

What was measured:
Assay type in all cases: cell-based, human
HTT mRNA = assay: RT-qPCR splicing assay, HTT canonical junction (CJ) and alternative junction (AJ) mRNA; details: Homo sapiens; for AC50: increase in HTT alternative junction (AJ) mRNA, read-out: HTT AJ AC50
In short: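 A673 cells (normalized to PPIA) or K562 cells (normalized to GAPDH or GUSB) were treated 24 h at 37 °C with an 11-point 3-fold dilution series, top 10 uM, DMSO ≤0.25%. Cell lysates went to one-step RT-qPCR measuring canonical- and alternative-junction MYB or HTT transcripts.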

SMN2 mRNA = assay: RT-qPCR splicing assay, SMN2 canonical junction (CJ) mRNA; details: Homo sapiens; Table 5 panel; canonical junction qPCR; compound concentration having 50% response in CJ decrease; read-out: SMN2 IC50 (decrease in CJ mRNA levels)
In short: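 A673 or K562 cells were treated for 24 h at 37 °C with compound in 11-point 3-fold dilution (top 10 uM final, DMSO ≤0.25%). Lysates then went to one-step RT-qPCR measuring canonical-junction mRNA, normalized to GAPDH, GUSB or PPIA.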

Target C = assay: HiBiT protein abundance assay, Target C (Promega Nano-Glo HiBiT Lytic Detection System, knock-in K562 cell line); details: Homo sapiens, K562, 24 h, HiBiT K562 cell line, 24 hours, top dose 10 μM; read-out: Effect on protein abundance, Target C (IC50 category)
In short: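 Knock-in K562 cells carrying HiBiT-tagged Target C, 10,000 per well, treated 24 h at 37 °C with 10-point threefold dilutions (top 10 μM final, ≤0.25% DMSO). Lytic HiBiT luminescence read; response normalised to unmodified K562 and DMSO controls, four-parameter fit interpolated at 50% for IC50.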

[1] = decrease in HTT canonical junction (CJ) mRNA, RT-qPCR, read-out: HTT CJ IC50
[2] = Table 5 panel, canonical junction qPCR, compound concentration having 50% response in CJ decrease, read-out: HTT IC50 (decrease in CJ mRNA levels)

Compound	IC50 (HTT mRNA; [1]) [nM]	AC50 (HTT mRNA; RT-qPCR) [nM]	IC50 (HTT mRNA; [2]) [nM]	IC50 (SMN2 mRNA) [nM]	IC50 (Target C) [nM]
Cc1cn2cc(-c3ccc4c(=O)n(C5CCNCC5)ccc4c3)cc(F)c2n1 [Compound 276]	< 100	< 100	< 100	< 100	< 100
Cc1cn2cc(-c3ccc4c(=O)n(C5CCNCC5)cnc4c3)cc(C(F)(F)F)c2n1 [Compound 306]	1000 to 10000	1000 to 10000	1000 to 10000	< 100	1000 to 10000
Cn1cc2cc(-c3cc(F)c4c(=O)n(C5CCNCC5)cnc4c3)cc(C#N)c2n1 [Compound 316]	100 to 1000	100 to 1000	100 to 1000	< 100	100 to 1000
Cc1cn2nc(-c3ccc4c(c3)CCN(C3CCN(C)CC3)C4=O)cc(C)c2n1 [Compound 268]	1000 to 10000	1000 to 10000	1000 to 10000	< 100	> 10000
Cn1cc2cc(-n3cnc4cc(N5CCNCC5)ccc4c3=O)ccc2n1 [Compound 153]	> 10000	> 10000	> 10000	1000 to 10000	> 10000
Cc1cn2cc(-c3ccc4c(=O)n(C5CCN[C@@H](C)C5)cnc4c3)cc(F)c2n1 (some centres unmarked) [Compound 294]	1000 to 10000	1000 to 10000	1000 to 10000	< 100	1000 to 10000
Cc1cn2cc(-c3ccc4c(=O)n([C@@H]5CCN[C@@H](C)C5)cnc4c3)cc(F)c2n1 [Compound 293]	1000 to 10000	100 to 1000	100 to 1000	< 100	1000 to 10000
Cc1cn2cc(-c3cc(F)c4c(=O)n([C@H]5CCNC[C@@H]5F)cnc4c3)cc(F)c2n1 (relative stereo) [Compound 341, 5-fluoro-7-(8-fluoro-2-methylimidazo[1,2-a]pyridin-6-yl)-3-(trans-3-fluoropiperidin-4-yl)quinazolin-4(3H)-one]	100 to 1000	100 to 1000	100 to 1000	< 100	1000 to 10000
Cn1cc2cc(-c3cc(F)c4c(=O)n(C5CCNCC5)cnc4c3)c(F)cc2n1 [Compound 315]	1000 to 10000	1000 to 10000	1000 to 10000	< 100	1000 to 10000
Cc1cn2nc(-c3ccc4c(=O)n(C5CCN(C)CC5)cnc4c3F)cc(C)c2n1 [Compound 290]	100 to 1000	100 to 1000	100 to 1000	100 to 1000	100 to 1000
Cc1cn2nc(-c3ccc4c(=O)n(C5CCCNCC5)ncc4c3)cc(C)c2n1 (centres unmarked) [Compound 283]	100 to 1000	100 to 1000	100 to 1000	< 100	100 to 1000
Cc1cn2nc(-c3cc(F)c4c(=O)n([C@@H]5CCNC6(CC6)C5)cnc4c3)cc(C)c2n1 [Compound 356]	< 100	100 to 1000	100 to 1000	< 100	< 100
O=c1c2ccc(-c3cn[nH]c3)cc2ncn1C1CCNCC1 [Compound 284]	> 10000	> 10000	> 10000	1000 to 10000	> 10000
